Results as given in US7767681B2, “2-Carbamide-4-phenylthiazole derivatives, preparation thereof and therapeutic use thereof” (sanofi-aventis, priority 2004, dated 2010).
Structures can show the parent of a compound that is named as a salt. Where two headings read alike, the source gives them in different places.

Columns and labels:
[1] = target: T1, human CCR2b receptor (Homo sapiens, UniProt P41597); assay: Inhibitory activity on cells expressing the human CCR2b receptor; format: cell-based
T1 sequence (P41597 1-360 isoform P41597-2): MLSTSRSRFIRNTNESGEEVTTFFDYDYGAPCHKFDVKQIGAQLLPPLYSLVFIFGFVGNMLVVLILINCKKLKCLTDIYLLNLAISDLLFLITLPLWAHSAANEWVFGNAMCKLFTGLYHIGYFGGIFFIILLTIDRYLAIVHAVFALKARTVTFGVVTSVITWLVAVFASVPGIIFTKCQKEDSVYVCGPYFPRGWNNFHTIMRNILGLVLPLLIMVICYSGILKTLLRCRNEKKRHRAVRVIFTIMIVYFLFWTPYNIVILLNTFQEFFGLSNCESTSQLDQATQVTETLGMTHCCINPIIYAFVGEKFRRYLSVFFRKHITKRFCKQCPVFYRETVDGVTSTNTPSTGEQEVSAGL
Description: The inhibitory activity of the compounds according to the invention on cells expressing the human CCR2b receptor was measured.

[2] = system: human THP-1 monocyte cells; assay: Inhibition of chemotaxis on human THP-1 monocyte cells; format: cell-based; settings: read-out: IC50 inhibition of chemotaxis (hMCP-1)
Description: The inhibition of chemotaxis was also measured on human THP-1 monocyte cells (sold by DSMZ—Germany), using a technique adapted from that described by A. Albini et al., Cancer Res., 1987, 47, 3239-3245.
The inhibition of chemotaxis by the compounds according to the invention is a sign of their antagonistic activity on chemokine receptors, and in particular the CCR2b receptor.

[3] = system: HIV-1 Bal virus; assay: Inhibitory activity on PBMCs infected with HIV-1 Bal (reverse transcriptase in supernatant); format: cell-based; settings: compounds in culture medium for 5 days, read-out: IC50 viral replication (amount of reverse transcriptase in the supernatant)
Description: The inhibitory activity of the compounds according to the invention was also measured on PBMCs (peripheral blood mononuclear cells) infected with the HIV-1 Bal virus, according to a technique adapted from that described by V. Dolle et al., J. Med. Chem., 2000, 43, 3949, 3962. According to this technique, the PBMCs are infected with HIV-1 Bal and the compounds to be tested are then added to the culture medium for 5 days. At the end of this exposure, the amount of reverse transcriptase in the supernatant is measured, which correlates with the level of viral replication in the cells.

[4] = read-out: IC50 of the activity of the CCR2b receptor

Compound	melting point [°C]	IC50 [1, 4] [nM]	also measured
COc1ccc(C2CCCC2)cc1-c1csc(NC(=O)N2CCN(CC3CCN(C)CC3)CC2)n1 [Compound No. 55]	102	14	–
hMCP-1: human monocyte chemotactic protein, CC chemokine, natural agonist of the CCR2b receptor [reference compound]	–	–	IC50 [2]: 6 nM; IC50 ([1]; read-out: IC50 of the activity of the CCR2b receptor (natural agonist hMCP-1)): 0.57 nM
CCCc1ccc(OC)c(-c2csc(NC(=O)N3CCN(CCCN(CC)CC)CC3)n2)c1 [Compound No. 14]	–	3.3	–
CCCc1ccc(OC)c(-c2csc(NC(=O)N3CCN(CCCN(CC)CC)CC3)n2)c1 (as salt: HCl) [Compound No. 14]	145	–	–
Cc1cn([C@H]2C[C@H](N=[N+]=[N-])[C@@H](CO)O2)c(=O)[nH]c1=O [AZT]	–	–	IC50 [3]: < 1000 nM
